Test in all cases: Cytotoxicity (MTT) assay
Type in all cases: cell-based

Experiment [1] concerns A549 (lung) human lung carcinoma. As to conditions: A549, read-out: IC50, Positive Control Epothilone B (nM). As for the experimental part:
(§1) In vitro cytotoxic activity of the isolated compounds was tested by applying the MTT (3-(4,5-dimethylthiayol-2-yl)-2,5-diphenyltetrazolium bromide) assay as previously reported. The mammalian cell lines used in the tests were sourced from DSMZ and included mouse fibroblasts (L929) and endocervical adenocarcinoma (KB3.1), human lung carcinoma (A549), breast adenocarcinoma (MCF-7), human ovarian cancer (SKOV-3), prostate carcinoma (PC-3), and epidermoid carcinoma cells (A431). Epothilone B was used as the positive control.

Experiment [2] concerns A431 (skin) epidermoid carcinoma cells. The settings on record: Homo sapiens, A-431, read-out: IC50, Positive Control Epothilone B (nM). As for the experimental part:
as §1

The subject of experiment [3] is PC-3 (prostate) carcinoma. As to conditions: Homo sapiens, read-out: IC50, Positive Control Epothilone B (nM). As to the method:
as §1

Experiment [4] deals with MCF-7 (breast) adenocarcinoma. The settings on record: Homo sapiens, MCF7, read-out: IC50, Positive Control Epothilone B (nM). As to the method:
as §1

One may read the IC50 as the point on the concentration scale where inhibition reaches its midpoint. Take `C/C(=C\c1csc(C)n1)[C@@H]1C[C@@H]2O[C@]2(C)CCC[C@H](C)[C@H](O)[C@@H](C)C(=O)C(C)(C)[C@@H](O)CC(=O)O1` [Epothilone B]: the 50% inhibitory concentration (IC50) turned out to be 0.05 nM in experiment [1], 0.06 nM in experiment [2], 0.09 nM in experiment [3] and 0.07 nM in experiment [4].

The values are drawn from publication PMC11273930, “Bioactive Bioxanthracene and Cyclodepsipeptides from the Entomopathogenic Fungus Blackwellomyces roseostromatus BCC56290” (Antibiotics, 2024).
